Data reported in patent US10889844B2, “Methods of degrading or hydrolyzing a polysaccharide” (Novozymes A/S, priority 2010, dated 2021).
Entries after “also recorded” stand apart in the source; their conditions may differ.

Legend:
Type in all cases: biochemical
CBP21 [1] = biological target: T1, CBP21 (Serratia marcescens, UniProt P9WEM3)
[2] = tested on: CBP21 (Serratia marcescens); conditions: CBP21 alone on beta-chitin with reductant; 10 mM sodium dithionite anaerobic or 2.0 mM potassium cyanide
Chain of CBP21 (Serratia marcescens) (P9WEM3 28-197): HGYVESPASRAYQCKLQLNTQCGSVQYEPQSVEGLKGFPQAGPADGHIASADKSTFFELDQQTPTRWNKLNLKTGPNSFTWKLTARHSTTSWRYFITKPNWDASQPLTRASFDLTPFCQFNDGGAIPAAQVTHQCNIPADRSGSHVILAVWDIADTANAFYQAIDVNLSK

Cellic™ CTec2 = assay: Effect of ascorbic acid on glucose release from cellulose by Cellic CTec2 (FIG. 35); conditions: 0.5 mM ascorbic acid, 24 hours
CBP21 [3] = biological target: T1, CBP21; assay: Reactions under metal chelating conditions: re-activation of metal-free CBP21
Procedure: Solid lines indicate reactions with metal-free CBP21; dashed lines indicate reactions without CBP21. Half way through the reaction (indicated by the arrow) MgCl2 (final concentration 25 mM), ZnCl2 (25 mM) or buffer was added to one of two (parallel) reaction mixtures. Squares, MgCl2 added; circles, ZnCl2 added; triangles, buffer added.
Divalent cations were removed by chelation through dialysis of a 10 mg/mL CBP21 solution in a buffer containing 20 mM Tris-HCl and 5 mM EDTA. The protein solution was present in a Slide-A-Lyzer cassette (Pierce) with 10 kDa MW cut-off dialysis membrane. […] For the re-activation experiment, the divalent cations were added to the appropriate reaction solutions immediately after the third sampling (90 minutes).

[4] = Filter paper cellulose degradation by […] with E7 (FIG. 28); conditions: 2 mM reduced glutathione
Procedure: 1 μM of the N-terminal CBM33 domain of CelS2 was incubated with 10 mg/ml AVICEL® in the presence of 0.8 mM of one of the reductants, or in the absence of any reductant. Reactions were run in 50 mM succinate buffer pH 5.5, 1 mM MgCl2, at 50° C. and 900 rpm (vertical agitation) for 20 hours. […] (glucose and cellobiose reported as [Glc]) released after incubation of 0.08 μl/ml […]™ (CC) in the presence or absence of 1 μM E7 and 2 mM reduced glutathione (RG) as external electron donor with 2 mg/ml filter paper cellulose. Reactions were incubated in 20 mM sodium acetate buffer pH 5.5, 1 mM MgCl2, at 50° C. and 900 rpm (horizontal agitation) for up to 50 hours.

[5] = Filter paper degradation by HjCel7A with CelS2 over time (FIG. 26); conditions: no CelS2 present
Procedure: By far the major products of these reactions are cellooligosaccharides released by the cellulases (whose activity is boosted by CelS2). In the case of HjCel7A, the main product is cellobiose and formation of this product is shown. RG, indicates the presence of a reductant, in this case reduced glutathione. […] The reactions were run at 50° C.

[6] = Time course of filter paper cellulose degradation by […] with CelS2 (FIG. 25); conditions: 0.5 mM reduced glutathione
Procedure: In reactions where no CelS2 was present, 40 μg/ml purified BSA was added in order to maintain an identical protein load. […] Data are mean+/−SD (N=3); error bars indicate SD.

[7] = Cleavage of AVICEL by GH61 proteins in the presence of ascorbic acid (HPAEC, FIG. 34); conditions: 140 μg/ml GH61 protein, 10 mg/ml AVICEL, 2.4 mM ascorbic acid, pH 6.6, 24 hours
Description: The two proteins were cloned and produced as described in Harris et al., 2010, supra. […] While the product pattern is similar to that obtained with CBM33s, it is not identical. The patterns typically obtained with CBM33s acting on cellulose in the presence of reductants (FIGS. 19, 22, 27, 30, and 31) show different peridiodicities (i.e., relative abundances of the various products, both oxidized and native oligosaccharides). This may indicate that TtGH61E acts on the substrate in a slightly different way, e.g., by attacking another face of the crystal. Clearly, however, the overall outcome of the reaction of TtGH61E in the presence of the reductant is similar to the outcome of reactions of CBM33s on cellulose in the presence of reductant.

[8] = EfCBM33 boost of alpha-chitin degradation by chitinase EF0361; conditions: 2.0 mg/ml alpha-chitin, 0.3 μM EF0361, 0.3 μM EfCBM33, 1.0 mM reduced glutathione
Procedure: (§1) For use in chitin degradation experiments, eight crystals were harvested from a 2 μL drop using a nylon loop and transferred to a 4 μL drop containing the crystallization liquor from the buffer reservoir. The crystals were mixed around in order to “rinse off” potential contaminants. After the first rinse, the crystals were transferred to a new 4 μL drop containing the crystallization liquor for a second rinsing cycle. Finally, all crystals were transferred to and dissolved in a 4 μL drop containing 20 mM Tris-HCl, pH 8.0. The resulting solution was diluted by adding it to a test tube containing 46 μL 20 mM Tris-HCl, pH 8.0. […] Soluble products in the supernatant of the reaction were analyzed by MALDI-TOF, using the same methods as those used for testing the activity of CBP21. Further, the ability of EfCBM33 to boost degradation of alpha-chitin was probed by conducting an experiment where 2.0 mg/ml alpha-chitin (shrimp shells) was incubated with 0.3 μM of the chitinase from Entreococcus feacalis (protein name (EF0361)) in the presence or absence of 0.3 μM EfCBM33 and 1.0 mM reductant (R: reduced glutathione) incubated at 37° C. with agitation at 900 rpm.

[9] = EfCBM33 (dissolved crystals) on beta-chitin, MALDI-TOF MS; conditions: 2.0 mg/ml beta-chitin
Procedure: as §1

T1 sequence (P9WEM3 28-197): as above

For `O=S([O-])S(=O)[O-].[Na+].[Na+]` [sodium dithionite, Sodium dithionite], which “effect on the potentiating effect of CBP21 on ChiC” value (CBP21 [1]) is on record?
Its value is “abolished”.

And the “effect on CBP21 generated oxidized products” value [2]?
The value was “no detectable amounts of CBP21 generated products”.

Which “increase of the release of glucose” value (Cellic™ CTec2; AVICEL®) does the source give for `O=C1O[C@H]([C@@H](O)CO)C(O)=C1O` [ascorbic acid] here?
Its value is “about 30%”.

And the “increase of the release of glucose” value (Cellic™ CTec2; Filter Paper)?
Its value is “about 30%”.

With `[Cl-].[Cl-].[Mg+2]` [MgCl2] as the molecule, how does the “re-activation of metal-free CBP21” value (CBP21 [3]) read?
The value was “Re-activation of metal-free CBP21 was achieved”.

With `N[C@@H](CCC(=O)N[C@@H](CS)C(=O)NCC(=O)O)C(=O)O` [reduced glutathione, reference compound] as the molecule, how does the “effect of reductant in reactions with only CC” value [4] read?
Its value is “no effect in reactions with only CC”.

What about the “effect of reductant on Cel7A alone” value [5] of the same molecule?
Its value is “essentially identical”.

What about the “effect of reductant in reactions with only CC” value [6] of the same molecule?
The value was “no effect in reactions with only CC”.

For `[Cl-].[Cl-].[Zn+2]` [ZnCl2], which “re-activation of metal-free CBP21” value (CBP21 [3]) is on record?
Its value is “Re-activation of metal-free CBP21 was achieved”.

B1: TtGH61E: GH61 protein from Thielavia terrestris (SEQ ID NO: 1) (protein)
chain: MLANGAIVFLAAALGVSGHYTWPRVNDGADWQQVRKADNWQDNGYVGDVTSPQIRCFQATPSPAPSVLNTTAGSTVTYWANPDVYHPGPVQFYMARVPDGEDINSWNGDGAVWFKVYEDHPTFGAQLTWPSTGKSSFAVPIPPCIKSGYYLLRAEQIGLHVAQSVGGAQFYISCAQLSVTGGGSTEPPNKVAFPGAYSATDPGILINIYYPVPTSYQNPGPAVFSCMLANGAIVFLAAALGVSGHYTWPRVNDGADWQQVRKADNWQDNGYVGDVTSPQIRCFQATPSPAPSVLNTTAGSTVTYWANPDVYHPGPVQFYMARVPDGEDINSWNGDGAVWFKVYEDHPTFGAQLTWPSTGKSSFAVPIPPCIKSGYYLLRAEQIGLHVAQSVGGAQFYISCAQLSVTGGGSTEPPNKVAFPGAYSATDPGILINIYYPVPTSYQNPGPAVFSC
modifications: T. terrestris
Which “cleavage of cellulose, oxidized products” value [7] does the source give for B1 here?
The value was “cuts cellulose producing oxidized and native celluoligosaccharides”.

B2: TaGH61A: GH61 protein (SEQ ID NO: 2), GH61A from T. aurantiacus (protein)
chain: MSFSKIIATAGVLASASLVAGHGFVQNIVIDGKKYYGGYLVNQYPYMSNPPEVIAWSTTATDLGFVDGTGYQTPDIICHRGAKPGALTAPVSPGGTVELQWTPWPDSHHGPVINYLAPCNGDCSTVDKTQLEFFKIAESGLINDDNPPGIWASDNLIAANNSWTVTIPTTIAPGNYVLRHEIIALHSAQNQDGAQNYPQCINLQVTGGGSDNPAGTLGTALYHDTDPGILINIYQKLSSYIIPGPPLYTG
modifications: T. aurantiacus
For B2, which “cleavage of cellulose, oxidized products” value [7] is on record?
Its value is “much less active than TtGH61E”.

B3: EfCBM33: family 33 CBM from Enterococcus faecalis (Uniprot ID:Q838S1; SEQ ID NO: 5) (protein, listed as Enterococcus faecalis)
chain: MKKSLLTIVLAFSFVLGGAALAPTVSEAHGYVASPGSRAFFGSSAGGNLNTNVGRAQWEPQSIEAPKNTFITGKLASAGVSGFEPLDEQTATRWHKTNITTGPLDITWNLTAQHRTASWDYYITKNGWNPNQPLDIKNFDKIASIDGKQEVPNKVVKQTINIPTDRKGYHVIYAVWGIGDTVNAFYQAIDVNIQ
With B3 as the molecule, how does the “boost of chitinase activity on alpha-chitin” value [8] read?
Its value is “A boost of the chitinase activity is clearly observed”.

What about the “oxidohydrolytic activity on beta-chitin (soluble products)” value [9] of the same molecule?
Its value is “clearly showing the formation of oxidized products; also recorded: the product spectrum is dominated by even-numbered oxidized chitooligosaccharides”.
